# Laboratory results taken from US11446287B2, “Compounds and methods for EP300 or CBP modulation and indications therefor” (Opna Immuno-Oncology SA, priority 2019, dated 2022).
# Target: T1, Recombinant human CBP containing the bromodomain (CBP-BD (1043-1159)) (Homo sapiens, UniProt Q92793)
# T1 construct: Recombinant human CBP bromodomain (CBP-BD (1043-1159)); made in house; host or cells: E. coli BL21-CodonPlus (DE3), modified pET vector
# Test: CBP Alphascreen binding assay
# Conditions: read-out: CREBBP (CBP) IC50
# In short: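 Buffer: 50 mM HEPES pH 7.5, 50 mM NaCl, 0.01% BSA, 0.01% Triton X-100, 2 mM DTT. The signal was normalised to plate controls and fitted with a four-parameter curve to give IC50.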
# T1 sequence (Q92793 1081-1197): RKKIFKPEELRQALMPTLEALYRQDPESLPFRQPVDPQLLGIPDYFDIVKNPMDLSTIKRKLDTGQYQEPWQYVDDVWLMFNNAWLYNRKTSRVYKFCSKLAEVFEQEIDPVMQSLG
row,SMILES,IC50 [µM]
1,"CCOc1cc(C(=O)O)cc(OCC)c1-n1cc(-c2ccc(OC)cc2F)c2ncc(-c3c(C)noc3C)cc21 [P-0194, 4-(6-(3,5-dimethylisoxazol-4-yl)-3-(2-fluoro-4-methoxyphenyl)-1H-pyrrolo[3,2-b]pyridin-1-yl)-3,5-diethoxybenzoic acid]",0.0001 to 1
2,"CCOc1cc(C(=O)O)cc(OCC)c1-n1cc(-c2cnn(C)c2)c2ncc(-c3c(C)noc3C)cc21 [P-0195, 4-(6-(3,5-dimethylisoxazol-4-yl)-3-(1-methyl-1H-pyrazol-4-yl)-1H-pyrrolo[3,2-b]pyridin-1-yl)-3,5-diethoxybenzoic acid]",0.0001 to 1
3,"Cc1noc(C)c1-c1cnc2c(-c3ccccc3)cn(-c3ccc(C(=O)O)cc3OC(F)(F)F)c2c1 [P-0196, 4-(6-(3,5-dimethylisoxazol-4-yl)-3-phenyl-1H-pyrrolo[3,2-b]pyridin-1-yl)-3-(trifluoromethoxy)benzoic acid]",0.0001 to 1
4,"Cc1noc(C)c1-c1cnc2c(c1)c(-c1c(Cl)cc(C(=O)O)cc1Cl)cn2[C@@H](C)c1ccccn1 [P-0197, (S)-3,5-dichloro-4-(5-(3,5-dimethylisoxazol-4-yl)-1-(1-(pyridin-2-yl)ethyl)-1H-pyrrolo[2,3-b]pyridin-3-yl)benzoic acid]",0.0001 to 1
5,"Cc1noc(C)c1-c1cnc2c(c1)c(-c1c(Cl)cc(C(=O)O)cc1OC(F)(F)F)cn2C(C1CC1)C1CC1 [P-0198, 3-chloro-4-(1-(dicyclopropylmethyl)-5-(3,5-dimethylisoxazol-4-yl)-1H-pyrrolo[2,3-b]pyridin-3-yl)-5-(trifluoromethoxy)benzoic acid]",0.0001 to 1
6,"Cc1noc(C)c1-c1cnc2c(c1)c(-c1ccc(C(=O)O)cc1OC(F)(F)F)cn2C(CC#N)C1CC1 (stereo not shown) [P-0199, 4-(1-(2-cyano-1-cyclopropylethyl)-5-(3,5-dimethylisoxazol-4-yl)-1H-pyrrolo[2,3-b]pyridin-3-yl)-3-(trifluoromethoxy)benzoic acid]",0.0001 to 1
7,"Cc1noc(C)c1-c1cnc2c(c1)c(-c1ccc(C(=O)O)cc1OC(F)(F)F)cn2C(CC#N)C1CCCC1 (stereo not shown) [P-0200, 4-(1-(2-cyano-1-cyclopentylethyl)-5-(3,5-dimethylisoxazol-4-yl)-1H-pyrrolo[2,3-b]pyridin-3-yl)-3-(trifluoromethoxy)benzoic acid]",0.0001 to 1
8,"CCOc1cc(C(=O)O)cc(OCC)c1-n1cc(-c2cnc(OC)nc2)c2ncc(-c3c(C)noc3C)cc21 [P-0201, 4-(6-(3,5-dimethylisoxazol-4-yl)-3-(2-methoxypyrimidin-5-yl)-1H-pyrrolo[3,2-b]pyridin-1-yl)-3,5-diethoxybenzoic acid]",0.0001 to 1
9,"Cc1noc(C)c1-c1cnc2c(c1)c(-c1ccc(C(=O)O)cc1OC(F)(F)F)cn2S(=O)(=O)C1CC1 [P-0202, 4-(1-(cyclopropylsulfonyl)-5-(3,5-dimethylisoxazol-4-yl)-1H-pyrrolo[2,3-b]pyridin-3-yl)-3-(trifluoromethoxy)benzoic acid]",0.0001 to 1
10,"Cc1noc(C)c1-c1cnc2c(c1)c(-c1ccc(C(=O)O)cc1OC(F)(F)F)cn2-c1ccnc(C(C)C)c1 [P-0203, 4-(5-(3,5-dimethylisoxazol-4-yl)-1-(2-isopropylpyridin-4-yl)-1H-pyrrolo[2,3-b]pyridin-3-yl)-3-(trifluoromethoxy)benzoic acid]",0.0001 to 1
11,"Cc1noc(C)c1-c1cnc2c(c1)c(-c1ccc(C(=O)O)cc1OC(F)(F)F)cn2-c1cnccc1C#N [P-0204, 4-(1-(4-cyanopyridin-3-yl)-5-(3,5-dimethylisoxazol-4-yl)-1H-pyrrolo[2,3-b]pyridin-3-yl)-3-(trifluoromethoxy)benzoic acid]",0.0001 to 1
12,"CCOc1cc(C(=O)O)cc(F)c1-n1cc(-c2ccccc2)c2ncc(-c3c(C)noc3C)cc21 [P-0205, 4-(6-(3,5-dimethylisoxazol-4-yl)-3-phenyl-1H-pyrrolo[3,2-b]pyridin-1-yl)-3-ethoxy-5-fluorobenzoic acid]",0.0001 to 1
13,"CCOc1cccc(C#N)c1-n1cc(-c2ccccc2)c2ncc(-c3c(C)noc3C)cc21 [P-0206, 2-(6-(3,5-dimethylisoxazol-4-yl)-3-phenyl-1H-pyrrolo[3,2-b]pyridin-1-yl)-3-ethoxybenzonitrile]",0.0001 to 1
14,"Cc1noc(C)c1-c1cnc2c(-c3ccccc3)cn(-c3c(Cl)cccc3C#N)c2c1 [P-0207, 3-chloro-2-(6-(3,5-dimethylisoxazol-4-yl)-3-phenyl-1H-pyrrolo[3,2-b]pyridin-1-yl)benzonitrile]",1 to 8
15,"CCOc1cc(C(=O)O)cc(OCC)c1-n1cc(C2=CCC(F)(F)CC2)c2ncc(-c3c(C)noc3C)cc21 [P-0208, 4-(3-(4,4-difluorocyclohex-1-en-1-yl)-6-(3,5-dimethylisoxazol-4-yl)-1H-pyrrolo[3,2-b]pyridin-1-yl)-3,5-diethoxybenzoic acid]",0.0001 to 1
16,"CCOc1cc(C(=O)O)cc(OCC)c1-n1cc(-c2ccc(F)c(Cl)c2)c2ncc(-c3c(C)noc3C)cc21 [P-0209, 4-(3-(3-chloro-4-fluorophenyl)-6-(3,5-dimethylisoxazol-4-yl)-1H-pyrrolo[3,2-b]pyridin-1-yl)-3,5-diethoxybenzoic acid]",0.0001 to 1

row,SMILES,IC50 [µM]
1,"CCOc1cc(C(=O)O)cc(OCC)c1-n1cc(CC2CCC2)c2ncc(-c3c(COC)noc3C)cc21 [P-0210, 4-(3-(cyclobutylmethyl)-6-(3-(methoxymethyl)-5-methylisoxazol-4-yl)-1H-pyrrolo[3,2-b]pyridin-1-yl)-3,5-diethoxybenzoic acid]",0.0001 to 1
2,"Cc1cnccc1-n1cc(-c2ccc(C(=O)O)cc2OC(F)(F)F)c2cc(-c3c(C)noc3C)cnc21 [P-0211, 4-(5-(3,5-dimethylisoxazol-4-yl)-1-(3-methylpyridin-4-yl)-1H-pyrrolo[2,3-b]pyridin-3-yl)-3-(trifluoromethoxy)benzoic acid]",0.0001 to 1
3,"Cc1noc(C)c1-c1cnc2c(c1)c(-c1ccc(C(=O)O)cc1OC(F)(F)F)cn2C1CCS(=O)(=O)CC1 [P-0212, 4-(5-(3,5-dimethylisoxazol-4-yl)-1-(1,1-dioxidotetrahydro-2H-thiopyran-4-yl)-1H-pyrrolo[2,3-b]pyridin-3-yl)-3-(trifluoromethoxy)benzoic acid]",0.0001 to 1
4,"Cc1noc(C)c1-c1cnc2c(c1)c(-c1ccc(C(=O)O)cc1OC(C)C)cn2C(C1CC1)C1CC1 [P-0213, 4-(1-(dicyclopropylmethyl)-5-(3,5-dimethylisoxazol-4-yl)-1H-pyrrolo[2,3-b]pyridin-3-yl)-3-isopropoxybenzoic acid]",0.0001 to 1
5,"Cc1noc(C)c1-c1cnc2c(c1)c(-c1ccc(C(=O)O)cc1OCC(F)(F)F)cn2C(C1CC1)C1CC1 [P-0214, 4-(1-(dicyclopropylmethyl)-5-(3,5-dimethylisoxazol-4-yl)-1H-pyrrolo[2,3-b]pyridin-3-yl)-3-(2,2,2-trifluoroethoxy)benzoic acid]",0.0001 to 1
6,"Cc1noc(C)c1-c1cnc2c(c1)c(-c1ccc(C(=O)O)cc1OC(F)(F)F)cn2-c1ncccc1C#N [P-0215, 4-(1-(3-cyanopyridin-2-yl)-5-(3,5-dimethylisoxazol-4-yl)-1H-pyrrolo[2,3-b]pyridin-3-yl)-3-(trifluoromethoxy)benzoic acid]",0.0001 to 1
7,"Cc1noc(C)c1-c1cnc2c(c1)c(-c1ccc(C(=O)O)cc1OC(F)(F)F)cn2-c1ncccc1C#CC1CC1 [P-0216, 4-(1-(3-(cyclopropylethynyl)pyridin-2-yl)-5-(3,5-dimethylisoxazol-4-yl)-1H-pyrrolo[2,3-b]pyridin-3-yl)-3-(trifluoromethoxy)benzoic acid]",0.0001 to 1
8,"CCOc1cc(C(=O)O)cc(OCC)c1-n1cc(-c2ccc(C#N)cc2F)c2ncc(-c3c(C)noc3C)cc21 [P-0217, 4-(3-(4-cyano-2-fluorophenyl)-6-(3,5-dimethylisoxazol-4-yl)-1H-pyrrolo[3,2-b]pyridin-1-yl)-3,5-diethoxybenzoic acid]",0.0001 to 1
9,"CCOc1cc(C(=O)O)cc(OCC)c1-n1cc(-c2ccc(C(=O)NC3CC3)cc2)c2ncc(-c3c(C)noc3C)cc21 [P-0218, 4-(3-(4-(cyclopropylcarbamoyl)phenyl)-6-(3,5-dimethylisoxazol-4-yl)-1H-pyrrolo[3,2-b]pyridin-1-yl)-3,5-diethoxybenzoic acid]",0.0001 to 1
10,"COC(=O)c1cc(OC)c(-n2cc(-c3ccccc3)c3ncc(-c4c(C)noc4C)cc32)c(OC)c1 [P-0219, methyl 4-(6-(3,5-dimethylisoxazol-4-yl)-3-phenyl-1H-pyrrolo[3,2-b]pyridin-1-yl)-3,5-dimethoxybenzoate]",0.0001 to 1
11,"COc1cc(C(=O)O)cc(OC)c1-n1cc(-c2ccccc2)c2ncc(-c3c(C)noc3C)cc21 [P-0220, 4-(6-(3,5-dimethylisoxazol-4-yl)-3-phenyl-1H-pyrrolo[3,2-b]pyridin-1-yl)-3,5-dimethoxybenzoic acid]",0.0001 to 1
12,"COc1cccc(OC)c1-n1cc(-c2ccccc2)c2ncc(-c3c(C)noc3C)cc21 [P-0221, 4-(1-(2,6-dimethoxyphenyl)-3-phenyl-1H-pyrrolo[3,2-b]pyridin-6-yl)-3,5-dimethylisoxazole]",1 to 8
13,"CCOc1cc(C(=O)O)cc(OCC)c1-n1cc(-c2ccnc(F)c2)c2ncc(-c3c(C)noc3C)cc21 [P-0222, 4-(6-(3,5-dimethylisoxazol-4-yl)-3-(2-fluoropyridin-4-yl)-1H-pyrrolo[3,2-b]pyridin-1-yl)-3,5-diethoxybenzoic acid]",0.0001 to 1
14,"Cc1noc(C)c1-c1cnc2c(c1)c(-c1ccc(C(=O)O)cc1OC(F)(F)F)cn2-c1ccccc1F [P-0223, 4-(5-(3,5-dimethylisoxazol-4-yl)-1-(2-fluorophenyl)-1H-pyrrolo[2,3-b]pyridin-3-yl)-3-(trifluoromethoxy)benzoic acid]",0.0001 to 1
15,"CCOc1cccc(Cl)c1-n1cc(-c2ccccc2)c2ncc(-c3c(C)noc3C)cc21 [P-0224, 4-(1-(2-chloro-6-ethoxyphenyl)-3-phenyl-1H-pyrrolo[3,2-b]pyridin-6-yl)-3,5-dimethylisoxazole]",1 to 8
